Experimental data: patent publication US10357036B2, “Compounds for controlling arthropods” (priority 2015, dated 2019)

How the values were obtained:
[1] = tested on: Rhipicephalus sanguineus; experiment: Rhipicephalus sanguineus in vitro contact test with adult brown dog ticks; type: in vivo; conditions: application rate 5 μg/cm^2 (=500 g/ha); after 48 h; dead or moribund ticks
Procedure: For the coating of the test tubes, 9 mg of active ingredient are first dissolved in 1 ml of acetone p.a. and then diluted to the desired concentration with acetone p.a. 250 μl of the solution are distributed homogeneously on the inner walls and the base of a 25 ml glass tube by turning and rocking on an orbital shaker (rocking rotation at 30 rpm for 2 h). With 900 ppm of active ingredient solution and internal surface area 44.7 cm^2, given homogeneous distribution, an area-based dose of 5 μg/cm^2 is achieved.
After the solvent has evaporated off, the tubes are populated with 5-10 adult dog ticks (Rhipicephalus sanguineus), sealed with a perforated plastic lid and incubated in a horizontal position in the dark at room temperature and ambient humidity. After 48 h, efficacy is determined. To this end, the ticks are knocked to the base of the tube and incubated on a hotplate at 45-50° C. for not more than 5 min. Ticks which remain motionless on the base or move in such an uncoordinated manner that they are unable to deliberately avoid the heat by climbing upwards are considered to be dead or moribund.
An efficacy of 100% means that all the ticks were dead or moribund. 0% efficacy means that none of the ticks were harmed.

[2] = tested on: Boophilus microplus; experiment: Boophilus microplus injection test; type: in vivo; conditions: 20 μg/animal; assessed after 7 days
Procedure: (§1) • Solvent: dimethyl sulfoxide
1 μl of the active ingredient solution is injected into the abdomen of 5 engorged adult female cattle ticks (Boophilus microplus). The animals are transferred into dishes and kept in a climate-controlled room.

[3] = tested on: Ctenocephalides felis; experiment: Ctenocephalides felis oral test; type: in vivo; conditions: 100 ppm in citrated cattle blood; after 2 days
Procedure: • Solvent: Dimethyl Sulfoxide
To produce a suitable active ingredient formulation, 10 mg of active ingredient are mixed with 0.5 ml of dimethyl sulfoxide. Dilution with citrated cattle blood gives the desired concentration.
About 20 unfed adult cat fleas (Ctenocephalides fells) are placed into a chamber which is closed at the top and bottom with gauze. A metal cylinder whose bottom end is closed with parafilm is placed onto the chamber. The cylinder contains the blood/active ingredient formulation, which can be imbibed by the fleas through the parafilm membrane.

[4] = tested on: Spodoptera frugiperda; experiment: Spodoptera frugiperda spray test; type: in vivo; conditions: 100 g/ha; after 7 days
[5] = tested on: Musca domestica; experiment: Musca domestica test; type: in vivo; conditions: 100 ppm; adult houseflies; after 2 days
Procedure: as §1
To produce a suitable active ingredient formulation, 10 mg of active ingredient are mixed with 0.5 ml of dimethyl sulfoxide, and the concentrate is diluted with water to the desired concentration.
Vessels containing a sponge treated with sugar solution and the active ingredient formulation of the desired concentration are populated with 10 adult houseflies (Musca domestica).

[6] = tested on: Tetranychus urticae; experiment: Tetranychus urticae spray test, OP-resistant (bean leaf discs); type: in vivo; conditions: 100 g/ha; after 6 days
Procedure: After 6 days, the efficacy in % is determined.

[7] = tested on: Phaedon cochleariae; experiment: Phaedon cochleariae spray test; conditions: 100 g/ha; after 7 days

SMILES | efficacy [1] [%] | efficacy (laying of fertile eggs) [2] [%] | efficacy (rate of extermination) [3] [%] | efficacy [4] [%] | efficacy (rate of extermination) [5] [%] | efficacy [6] [%] | efficacy [7] [%]
CCC(=O)NC1CCc2ccc(-c3cnn(-c4c(Cl)cc(C(F)(C(F)(F)F)C(F)(F)F)cc4C(F)(F)F)c3)cc21 (centres unmarked) [I-Tc-02] | 80 | 100 | 100 | 100 |  |  | 
CC(=O)NCc1cccc(-c2cnn(-c3c(Cl)cc(C(F)(C(F)(F)F)C(F)(F)F)cc3C(F)F)c2)c1 [Ia-02] |  | 100 | 100 | 100 | 100 | 100 | 100
CSc1cc(C(F)(C(F)(F)F)C(F)(F)F)cc(Cl)c1-n1cc(-c2ccc(F)c(CNC(=O)C3CC3)c2)cn1 [Ia-12] |  | 100 | 100 | 83 | 100 | 100 | 100
O=C(NCc1cc(-c2cnn(-c3c(Cl)cc(C(F)(C(F)(F)F)C(F)(F)F)cc3Cl)c2)cnc1Cl)C1CC1 [Ia-18] |  | 100 | 100 | 100 | 100 |  | 100
O=C(CC(F)(F)F)NCc1cc(-c2cnn(-c3c(Cl)cc(C(F)(C(F)(F)F)C(F)(F)F)cc3Cl)c2)ccc1Cl [Ia-35] |  | 100 | 100 | 100 | 100 |  | 
O=C(NCc1cccc(-c2cnn(-c3c(Cl)cc(C(F)(C(F)(F)F)C(F)(F)F)cc3Cl)c2)c1)C1CC1 [Ia-41] |  | 100 | 100 |  | 100 |  | 100
CCCCC(=O)NCc1cc(-c2cnn(-c3c(Cl)cc(C(F)(C(F)(F)F)C(F)(F)F)cc3C(F)F)c2)ccc1F [Ia-59] |  | 100 | 100 | 100 | 100 | 100 | 100
CC(C)CC(=O)NCc1cc(-c2cnn(-c3c(Cl)cc(C(F)(C(F)(F)F)C(F)(F)F)cc3C(F)F)c2)ccc1F [Ia-61] |  | 100 | 100 | 100 | 80 | 70 | 
CCC(=O)NCc1cc(-c2cnn(-c3c(Cl)cc(C(F)(C(F)(F)F)C(F)(F)F)cc3Cl)c2)ccc1C(F)(F)F [Ia-72] |  | 100 | 100 | 100 | 100 | 100 | 100
CC(=O)NCc1cc(-c2cnn(-c3c(Cl)cc(C(F)(C(F)(F)F)C(F)(F)F)cc3Cl)c2)ccc1C(F)(F)F [Ia-74] |  | 100 | 100 | 100 | 100 | 100 | 100
CC(=O)N(C)Cc1cc(-c2cnn(-c3c(Cl)cc(C(F)(C(F)(F)F)C(F)(F)F)cc3Cl)c2)ccc1C(F)(F)F [Ia-77] |  | 100 | 100 | 100 |  |  | 100
CC(=O)NCc1cc(-c2cnn(-c3c(Cl)cc(S(=O)(=O)C(F)(F)F)cc3Cl)c2)ccc1Cl [Ia-88] |  | 100 | 100 | 83 |  | 100 | 100
N#Cc1cc(C(F)(C(F)(F)F)C(F)(F)F)cc(Cl)c1-n1cc(-c2cccc(CNC(=O)C3CC3)c2)cn1 [Ia-98] |  | 100 | 100 |  | 90 | 90 | 100
CCC(=O)NCc1cc(-c2cnn(-c3c(Cl)cc(C4(C(F)(F)F)CC4)cc3Cl)c2)ccc1Cl [Ia-128] |  |  | 100 | 100 | 100 |  | 100
CCC(=O)NCc1cc(-c2cnn(-c3c(Cl)cc(C(F)(C(F)(F)F)C(F)(F)F)cc3Cl)c2)cnc1Cl [Ia-132] |  | 100 | 100 | 100 | 100 |  | 100
CCC(=O)NCc1cc(-c2cnn(-c3c(Cl)cc(C(F)(C(F)(F)F)C(F)(F)F)cc3OC(F)(F)F)c2)cnc1Cl [Ia-133] |  | 100 | 100 | 100 | 100 |  | 100
CC(=O)NCc1cccc(-c2cnn(-c3c(Cl)cc(C(F)(C(F)(F)F)C(F)(F)F)cc3C(F)F)c2)c1F [Ia-144] |  | 100 | 100 | 100 | 100 | 90 | 100
CCC(=O)NCc1c(F)ccc(-c2cnn(-c3c(Cl)cc(C(F)(C(F)(F)F)C(F)(F)F)cc3Cl)c2)c1F [Ia-148] |  | 100 | 100 | 100 | 100 |  | 100
CCC(=O)NCc1cccc(-c2cnn(-c3c(Cl)cc(C(F)(C(F)(F)F)C(F)(F)F)cc3C(F)(F)F)c2)c1F [Ia-150] |  | 100 | 100 | 100 | 100 | 90 | 100
CC(=O)NCc1cccc(-c2cnn(-c3c(Cl)cc(C(F)(C(F)(F)F)C(F)(F)F)cc3C(F)(F)F)c2)c1F [Ia-151] |  | 100 | 100 | 100 | 100 |  | 100
CCC(=O)N(C)Cc1cc(-c2cnn(-c3c(Cl)cc(C(F)(C(F)(F)F)C(F)(F)F)cc3Cl)c2)ccc1Br [Ia-167] |  |  |  | 100 |  | 100 | 100
CS(=O)(=O)NCc1cc(-c2cnn(-c3c(Cl)cc(C(F)(C(F)(F)F)C(F)(F)F)cc3Cl)c2)ccc1Cl [Ic-01] |  | 100 | 100 | 100 | 90 | 100 | 100
CN(Cc1cc(-c2cnn(-c3c(Cl)cc(C(F)(C(F)(F)F)C(F)(F)F)cc3Cl)c2)ccc1Cl)S(C)(=O)=O [Ic-04] |  |  | 100 | 100 | 100 | 100 | 100
